A short description of data set [1]: Solubility (25° C. - w/v). It counts as physicochemical. The following applies: for Solubility in acetone, acetonitrile, tetrahydrofuran, dioxane: practically insoluble; for Solubility in methanol: slightly soluble; for Solubility in ethanol: very slightly soluble; for Solubility in water: very soluble.
Data set [2] in a line: pH of a saturated aqueous solution at 20° C. It counts as physicochemical.
Data set [3] in a line: Partition coefficient in phosphate buffer (pH 6.8)/n-octanol at 25° C. It counts as physicochemical.
Data set [4] is described as follows: Stability at 25° C. and 60% R.H. (appearance, titre). It counts as physicochemical.
A short description of data set [5]: Stability at 40° C. and 85% R.H. (appearance, titre). Format: physicochemical.
For data set [6] the following is noted: cited from earlier work.
Setting [7] is: 0 months, (*): Crystalline powder of pale cream colour.
[8] abbreviates: 18 months (after slight yellowing at 12 months).
Setting [9] is: 24 months (after slight yellowing at 12 months).

As for `Cl.N[C@H]1C(O)O[C@H](CO)[C@@H](O)[C@@H]1O.O=S(=O)([O-])[O-].[K+].[K+]` (some centres unmarked) [Example 6], the “Solubility in benzene, chloroform, carbon tetrachloride, methylene chloride, ligroin, ethyl ether” value in data set [1] was “Insoluble”. Besides, the “Solubility in acetone, acetonitrile, tetrahydrofuran, dioxane” value in data set [1] was < 0.01 % (w/v). In addition, in data set [1], the Solubility in methanol entry is recorded as “about 1 % (w/v)”. Besides, in data set [1], the Solubility in ethanol result is listed as “about 0.03 % (w/v)”. In data set [1], the Solubility in water result is “about 40 % (w/v)”. For the same compound, the “pH of a saturated aqueous solution” value in data set [2] is 3 +/-0.2. In addition, the Partition coefficient result in data set [3] is on record as “practically infinite”. The Titre in data set [4] (0 months) is on record as 100.1%; in data set [4] (3 months, 131400 min), 100.3%; in data set [4] (6 months, 262800 min) it was 99.8%; in data set [4] (9 months, 394200 min), 99.6%; in data set [4] (12 months, 525600 min), 100.3%; in data set [5] (0 months) it was 100.1%. In addition, the Titre is listed as 100.3% in data set [5] (3 months, 129600 min); 99.8% in data set [5] (6 months, 259200 min); 100.0% in data set [5] (9 months, 388800 min); 95.7% in data set [5] (12 months, 518400 min); 96.2% in data set [5] (18 months, 777600 min); 95.5% in data set [5] (24 months, 1.0368e+06 min). In addition, the Appearance result is “conforms” in data set [4] (setting [7]); “unchanged” in data set [4] (3 months); “unchanged” in data set [4] (6 months); “unchanged” in data set [4] (9 months); “unchanged” in data set [4] (12 months); “conforms” in data set [5] (setting [7]). Moreover, the Appearance result in data set [5] (3 months), in data set [5] (6 months), in data set [5] (9 months), in data set [5] (setting [8]) and in data set [5] (setting [9]) was “unchanged” throughout.

Regarding `Cl.N[C@H]1C(O)O[C@H](CO)[C@@H](O)[C@@H]1O.O=S(=O)([O-])[O-].[Mg+2]` (some centres unmarked) [Example 8], the “Solubility in benzene, chloroform, carbon tetrachloride, methylene chloride, ligroin, ethyl ether” value in data set [1] is reported as “Insoluble”. The “Solubility in acetone, acetonitrile, tetrahydrofuran, dioxane” value in data set [1] is < 0.01 % (w/v). The Solubility in methanol entry in data set [1] was “about 1 % (w/v)”. Besides, the Solubility in ethanol result in data set [1] is “about 0.03 % (w/v)”. Further, the Solubility in water entry in data set [1] was “about 40 % (w/v)”. The “pH of a saturated aqueous solution” value in data set [2] is listed as 3 +/-0.2. Moreover, the Partition coefficient result in data set [3] was “practically infinite”. For the same compound, the Titre in data set [4] (0 months) amounted to 100.5%; in data set [4] (3 months, 131400 min) it was 100.1%; in data set [4] (6 months, 262800 min), 99.8%; in data set [4] (9 months, 394200 min), 100.3%; in data set [4] (12 months, 525600 min) it was 100.6%; in data set [5] (0 months), 100.5%. Besides, the Titre in data set [5] (3 months, 129600 min) is 100.6%; in data set [5] (6 months, 259200 min), 100.1%; in data set [5] (9 months, 388800 min), 100.2%; in data set [5] (12 months, 518400 min) it was 97.4%; in data set [5] (18 months, 777600 min), 97.7%; in data set [5] (24 months, 1.0368e+06 min), 97.3%. For the same compound, the Appearance result is on record as “conforms” in data set [4] (setting [7]); “unchanged” in data set [4] (3 months); “unchanged” in data set [4] (6 months); “unchanged” in data set [4] (9 months); “unchanged” in data set [4] (12 months); “conforms” in data set [5] (setting [7]). The Appearance entry in data set [5] (3 months), in data set [5] (6 months), in data set [5] (9 months), in data set [5] (setting [8]) and in data set [5] (setting [9]) was “unchanged” each time.

Consider `Cl.N[C@H]1C(O)O[C@H](CO)[C@@H](O)[C@@H]1O` (some centres unmarked) [glucosamine hydrochloride, reference compound], for which, in data set [6] (no particular precautions in time, temperature or humidity), the Stability on storage result is “stable”.

With `N[C@H]1C(O)O[C@H](CO)[C@@H](O)[C@@H]1O.O=S(=O)(O)O` (some centres unmarked) [glucosamine sulphate, reference compound], the Hygroscopicity result in data set [6] (background statement) is “highly hygroscopic”.

Values taken from patent US5847107A, “Method of preparing mixed glucosamine salts” (Rotta Research B.V. Amsterdam (Swiss Branch), priority 1996, dated 1998).
